In PubChem BioAssay (NCI):
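Interpolation was linear, between the two tested concentrations surrounding the appropriate level; five concentrations were tested over 48 hours in 96-well plates. Abbreviation: GI50, concentration required for 50% inhibition of growth. TGI denotes the concentration required for complete inhibition of growth.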

Columns and labels:
Experiment in all cases: growth of human tumour cells (NCI), 48 h
[1] = system: SK-MEL-2 melanoma
[2] = system: T-47D breast
[3] = system: SK-MEL-28 melanoma
[4] = system: NCI-H23 lung
[5] = system: OVCAR-8 ovarian
[6] = system: HL-60(TB) leukemia
[7] = system: SF-295 CNS
[8] = system: A498 renal
[9] = system: HOP-62 NSCLC
[10] = system: KM12 colon

CCOC(=O)/C(C#N)=C(/NNc1ccccc1)c1ccncc1C(=O)O showed a TGI [1] of over 100 µM, a TGI [2] of over 100 µM and a TGI [3] of over 100 µM. For the same compound, the TGI [4] was over 100 µM, the TGI [5] was over 100 µM and the TGI [6] was over 100 µM. It also gave a TGI [7] of over 100 µM, a TGI [8] of over 100 µM and a TGI [9] of over 100 µM. For the same compound, the TGI [10] was over 100 µM.

For Cc1cc(S(=O)(=O)Nc2nc3ccccc3n2-c2ccccc2)c(S)cc1Cl, the TGI [1] was over 100 µM, the TGI [2] was over 100 µM and the TGI [3] was over 100 µM. For the same compound, the TGI [5] was over 100 µM, the TGI [6] was over 100 µM and the TGI [7] was over 100 µM. For the same compound, the TGI [10] was over 100 µM.

Compound Cc1nn(C)c2nc3ccc(Cl)cc3c(-c3ccccc3)c12 has a TGI [1] of over 100 µM, a TGI [2] of over 100 µM and a TGI [3] of over 100 µM. It also gave a TGI [4] of over 100 µM, a TGI [5] of over 100 µM and a TGI [6] of over 100 µM. For the same compound, the TGI [7] was over 100 µM, the TGI [8] was over 100 µM and the TGI [9] was over 100 µM. The TGI [10] was over 100 µM.

Work on COc1cc(OC)cc(-c2n/c(=C\c3c(O)[nH]c4ccc(Cl)cc34)cc3c2=Nc2ccccc2-3)c1 yielded a GI50 [1] of 20.8 µM, a TGI [1] of 43.4 µM and a GI50 [2] of 4.39 µM. The TGI [2] was 17 µM, the GI50 [3] was 29.3 µM and the TGI [3] was over 100 µM. It also gave a GI50 [4] of 2.34 µM, a TGI [4] of 6.06 µM and a GI50 [5] of 3.51 µM. It also gave a TGI [5] of 15.5 µM, a GI50 [7] of 2.32 µM and a TGI [7] of 6.11 µM. The GI50 [8] was 30.9 µM, the TGI [8] was over 100 µM and the GI50 [9] was 1.99 µM. It also gave a TGI [9] of 3.99 µM, a GI50 [10] of 3.95 µM and a TGI [10] of 14.1 µM.

For CC(C)(C)c1cc(C(=O)/C=C/c2ccn[nH]2)cc(C(C)(C)C)c1O, the TGI [1] was 3.43 µM, the TGI [2] was 3.32 µM and the TGI [3] was 11.7 µM. It also gave a TGI [4] of 7.38 µM, a TGI [5] of 6.02 µM and a TGI [6] of 5.64 µM. For the same compound, the TGI [7] was 28.1 µM, the TGI [8] was 6.25 µM and the TGI [9] was 9.52 µM. It also gave a TGI [10] of 5.35 µM.

In the case of CCOC(=O)C(NC(=O)CC)(Nc1ccc(S(=O)(=O)Nc2nc(C)cc(C)n2)cc1)C(F)(F)F (stereo not drawn), the TGI [1] is reported as over 100 µM, the TGI [2] is reported as over 100 µM and the TGI [3] is reported as over 100 µM. For the same compound, the TGI [4] was over 100 µM, the TGI [5] was over 100 µM and the TGI [6] was over 100 µM. The TGI [7] was over 100 µM, the TGI [8] was over 100 µM and the TGI [9] was over 100 µM. The TGI [10] was over 100 µM.

For CC(C)(C)OC(=O)NCC(=O)NC1C/C(=N\O)c2sccc21 (stereo not drawn), the TGI [1] was over 100 µM, the TGI [2] was over 100 µM and the TGI [3] was over 100 µM. It also gave a TGI [4] of over 100 µM, a TGI [5] of over 100 µM and a TGI [6] of over 100 µM. For the same compound, the TGI [7] was over 100 µM, the TGI [8] was over 100 µM and the TGI [9] was over 100 µM.

In the case of CC(C)C(C/C=C1/CC(CO)(COC(=O)C2CCCCC2)OC1=O)C(C)C (stereo not drawn), the TGI [1] is reported as over 100 µM, the TGI [2] is reported as 45.9 µM and the TGI [3] is reported as 35.1 µM. It also gave a TGI [4] of 35.9 µM, a TGI [5] of 32.7 µM and a TGI [7] of 29 µM. For the same compound, the TGI [8] was 76.2 µM, the TGI [9] was 26.9 µM and the TGI [10] was 55.3 µM.

O=S1(=O)C(c2ccccc2)=C(O)c2ccccc21 gave a TGI [1] of over 100 µM, a TGI [2] of over 100 µM and a TGI [3] of over 100 µM. The TGI [4] was over 100 µM, the TGI [5] was over 100 µM and the TGI [6] was over 100 µM. For the same compound, the TGI [7] was over 100 µM, the TGI [8] was over 100 µM and the TGI [9] was over 100 µM. For the same compound, the TGI [10] was over 100 µM.

COc1cc(C(c2cccc3ccccc23)N2C(=O)CCC2C(=O)NCc2ccccc2)cc(OC)c1OC (stereo not drawn) was tested, and the TGI [1] was over 100 µM, the TGI [2] was over 100 µM and the TGI [3] was over 100 µM. The TGI [4] was over 100 µM, the TGI [5] was over 100 µM and the TGI [6] was over 100 µM. For the same compound, the TGI [7] was over 100 µM, the TGI [8] was over 100 µM and the TGI [9] was over 100 µM. For the same compound, the TGI [10] was over 100 µM.

In the case of COC(=O)/C=C/c1cc(OC)c2oc(-c3ccc(OC)c(OC)c3)c(C(=O)OC)c2c1, the TGI [1] is reported as over 100 µM, the TGI [2] is reported as over 100 µM and the TGI [3] is reported as over 100 µM. The TGI [4] was over 100 µM, the TGI [5] was over 100 µM and the TGI [6] was over 100 µM. For the same compound, the TGI [7] was over 100 µM, the TGI [8] was over 100 µM and the TGI [10] was over 100 µM.

Nc1ccc(-c2nc3ccc(F)cc3s2)cc1 showed a TGI [1] of 39.6 µM, a TGI [3] of over 100 µM and a TGI [4] of over 100 µM. The TGI [5] was over 100 µM, the TGI [7] was 60.7 µM and the TGI [8] was 80.3 µM. It also gave a TGI [9] of 90.8 µM and a TGI [10] of 64.3 µM.

For CN(CCc1ccc(Cl)c(Cl)c1)CCN(C)CCN1CCCC1, the TGI [1] was 10 µM, the TGI [2] was 44.6 µM and the TGI [3] was 3.34 µM. The TGI [4] was 38.3 µM, the TGI [5] was 62 µM and the TGI [6] was 31.7 µM. The TGI [7] was 32.4 µM, the TGI [8] was 26.3 µM and the TGI [9] was 34.9 µM. It also gave a TGI [10] of 24.8 µM.

Compound Oc1nc(N/N=C/c2ccccc2)[nH]c1/C=C1\C=Nc2ccccc21 has a TGI [1] of over 100 µM, a TGI [2] of over 100 µM and a TGI [3] of over 100 µM. For the same compound, the TGI [4] was over 100 µM, the TGI [5] was over 100 µM and the TGI [6] was over 100 µM. For the same compound, the TGI [7] was over 100 µM, the TGI [8] was over 100 µM and the TGI [9] was over 100 µM. It also gave a TGI [10] of over 100 µM.

For CCNc1ncnc2c1nnn2CC, the TGI [1] was over 100 µM, the TGI [2] was over 100 µM and the TGI [3] was over 100 µM. For the same compound, the TGI [4] was over 100 µM, the TGI [5] was over 100 µM and the TGI [6] was over 100 µM. For the same compound, the TGI [7] was over 100 µM, the TGI [8] was over 100 µM and the TGI [9] was over 100 µM. For the same compound, the TGI [10] was over 100 µM.

O=C(N/N=C/c1ccc(Cl)cc1)c1cc(I)cc(I)c1O was tested, and the TGI [1] was over 100 µM, the TGI [2] was over 100 µM and the TGI [3] was over 100 µM. For the same compound, the TGI [4] was over 100 µM, the TGI [5] was over 100 µM and the TGI [6] was over 100 µM. The TGI [7] was over 100 µM, the TGI [8] was over 100 µM and the TGI [9] was over 100 µM. It also gave a TGI [10] of over 100 µM.

In the case of Cc1c(C#N)c2nnn(-c3ccccc3)c(=O)n2c1-c1ccccc1, the TGI [1] is reported as over 72.9 µM, the TGI [2] is reported as 87.4 µM and the TGI [3] is reported as over 100 µM. The TGI [4] was over 77.6 µM, the TGI [5] was over 100 µM and the TGI [7] was 8.53 µM. The TGI [8] was over 25.1 µM, the TGI [9] was over 100 µM and the TGI [10] was 29.1 µM.

Work on Cn1c2c(c3ccccc31)CCN1C(=O)C3SC21C1C(=O)N(c2ccccc2)C(=O)C31 (stereo not drawn) yielded a TGI [2] of over 100 µM, a TGI [3] of over 100 µM and a TGI [4] of over 100 µM. The TGI [5] was over 100 µM, the TGI [6] was over 77.3 µM and the TGI [7] was over 100 µM. The TGI [8] was over 89.7 µM, the TGI [9] was over 100 µM and the TGI [10] was over 100 µM.

With C[C@@H]1CC[C@@H](C)[C@](C)(CCc2ccoc2)C/C=C\C=C/1C(=O)O the TGI [1] was over 50 µM, the TGI [3] was over 50 µM and the TGI [4] was over 50 µM. For the same compound, the TGI [5] was over 50 µM, the TGI [6] was over 50 µM and the TGI [7] was over 50 µM. For the same compound, the TGI [8] was over 50 µM, the TGI [9] was over 50 µM and the TGI [10] was over 50 µM.

In the case of C=CC(C)(C)c1cc([C@@H]2COc3cc(O)ccc3C2=O)c(O)c(O)c1OC, the TGI [1] is reported as 45.8 µM, the TGI [2] is reported as 62.3 µM and the TGI [3] is reported as 67.2 µM. The TGI [4] was 34 µM, the TGI [5] was 30.9 µM and the TGI [6] was 73.3 µM. For the same compound, the TGI [7] was over 100 µM and the TGI [10] was 40.7 µM.

Cc1ccc(S(=O)(=O)c2ccc([N+](=O)[O-])o2)cc1 showed a TGI [1] of 28.7 µM, a TGI [2] of 6.24 µM and a TGI [3] of 3.81 µM. It also gave a TGI [4] of 13 µM, a TGI [5] of 1.82 µM and a TGI [7] of 43.9 µM. For the same compound, the TGI [8] was 33.9 µM and the TGI [9] was 38.1 µM.
